{
  "source": "patent US12685777B2",
  "about": "“Compositions, systems, and methods for modulating a target gene” (The Board of Trustees of the Leland Stanford Junior …, priority 2022, dated 2026)",
  "key": {"CDK9 and BCL6": {"target": "T1, CDK9 and BCL6 (Homo sapiens, UniProt P41182+P50750)", "T1 construct": "endogenous in cells", "assay": "Competition of TCIP-induced cell death with BCL6 inhibitor", "assay_type": "cell-based", "conditions": "cell death recorded 72 hours after adding"}, "SUDHL5": {"system": "SUDHL5", "assay": "Killing of lymphoma cell lines by CDK9-BCL6 TCIPs, death recorded 72 hours later", "assay_type": "cell-based, human", "protocol": "FIG. 15 CDK9-BCL6 TCIPs Effectively Kill Human Lymphomas. The molecules shown in FIG. 14 were used at the indicated concentrations to treat different lymphoma cell lines, such as SUDHL5 shown here. Death was recorded 72 hours later."}, "[1]": {"system": "MYC, FOXO3, p21, BCL6, BRD4 protein levels in KARPAS422 and SUDHL5", "conditions": "known for BET/BRD4 inhibitors; cited from earlier work"}, "DLBCL cell lines": {"system": "DLBCL cell lines", "assay": "Chemical rescue: competitive titration of JQ1 or Bl3812 against the TCIP", "assay_type": "cell-based", "conditions": "titrated against constant JWZ-7-7 / TCIP1"}, "NCI-H1105": {"system": "NCI-H1105", "assay": "Dose response on viability of small cell lung cancer line, resazurin assay", "assay_type": "cell-based", "conditions": "NCI-H1105, 72 h treatment", "protocol": "(§1) IC50 of JWZ-7-7, BI-3812, JQ1, and combinations were calculated based on a dose response curve on three small cell lung cancer lines (FIG. 5). The dose response curve on viability was performed in technical replicates and biological triplicate after treating cells for 72 hours across a broad range of concentrations via serial dilutions. Viable cells were measured after treatment via a resazurin assay. The signal for viable assays was normalized to the DMSO treated negative control. A four-parameter non-linear fit was performed to fit a curve to calculate the IC50 for each of the cell lines. The table below describes the calculated IC50 across JWZ-7-7, JQ1, BI-3812 and combination of JQ1 and BI-3812 after 72 h treatment in technical replicates and biological triplicates."}, "DMS-79": {"system": "DMS-79", "assay": "Dose response on viability of small cell lung cancer line, resazurin assay", "assay_type": "cell-based", "conditions": "DMS-79, 72 h treatment", "protocol": "as §1"}, "NCI-H2196": {"system": "NCI-H2196", "assay": "Dose response on viability of small cell lung cancer line, resazurin assay", "assay_type": "cell-based", "conditions": "NCI-H2196, 72 h treatment", "protocol": "as §1"}, "AR and BCL6": {"target": "T2, AR and BCL6 (Homo sapiens, UniProt P10275+P41182)", "T2 construct": "HaloTag; NanoLuc; expressed in transfected cells; host or cells: HEK293", "T2 sequence (P10275 whole entry, other chains not shown)": "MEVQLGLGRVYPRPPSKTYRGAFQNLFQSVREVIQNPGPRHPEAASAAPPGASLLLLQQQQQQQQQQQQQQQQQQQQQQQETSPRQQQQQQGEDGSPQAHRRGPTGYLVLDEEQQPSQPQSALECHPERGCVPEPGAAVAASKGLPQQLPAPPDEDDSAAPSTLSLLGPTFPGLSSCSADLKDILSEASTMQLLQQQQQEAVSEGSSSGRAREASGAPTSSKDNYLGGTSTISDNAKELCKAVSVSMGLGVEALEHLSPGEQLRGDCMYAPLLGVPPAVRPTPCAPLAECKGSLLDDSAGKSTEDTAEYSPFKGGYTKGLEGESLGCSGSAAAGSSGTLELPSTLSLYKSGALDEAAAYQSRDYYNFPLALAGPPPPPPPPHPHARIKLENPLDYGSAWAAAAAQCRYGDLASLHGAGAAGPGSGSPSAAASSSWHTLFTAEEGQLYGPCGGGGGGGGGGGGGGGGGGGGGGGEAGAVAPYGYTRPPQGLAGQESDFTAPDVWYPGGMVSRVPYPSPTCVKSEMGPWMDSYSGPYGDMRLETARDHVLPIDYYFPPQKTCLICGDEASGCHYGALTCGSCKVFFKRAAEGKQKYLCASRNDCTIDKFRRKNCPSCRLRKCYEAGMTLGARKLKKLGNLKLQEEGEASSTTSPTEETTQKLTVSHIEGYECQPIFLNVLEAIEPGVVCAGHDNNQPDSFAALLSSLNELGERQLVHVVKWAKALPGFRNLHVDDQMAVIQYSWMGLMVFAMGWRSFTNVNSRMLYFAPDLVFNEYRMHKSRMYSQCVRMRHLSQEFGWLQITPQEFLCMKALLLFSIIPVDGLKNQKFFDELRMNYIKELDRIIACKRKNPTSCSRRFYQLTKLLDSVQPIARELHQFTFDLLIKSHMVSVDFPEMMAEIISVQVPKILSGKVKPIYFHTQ", "assay": "AR-BCL6 nanoBRET assay in HEK293 cells", "assay_type": "cell-based", "conditions": "labeled AR and BCL6", "text": "To ascertain activity of TCIP RCS-02-063 as schematically illustrated in FIG. 1, w a BRET assay was developed to detect in vivo target engagement and ternary complex formation. FIG. 25 (Panels A-B) provides an illustration of the assay as wells the results obtained therefrom. […] A BRET signal at 618 nm was then detected after excitation at 460 nm of HEK293 cells infected with the labeled fusion proteins."}, "[2]": {"system": "human prostatic cancer cell lines", "assay": "Viable cell counts of androgen-dependent prostate cancer cell lines after 72 hours", "assay_type": "cell-based", "conditions": "72 hours of exposure, read-out: IC50 of killing of prostate cancer cell lines", "protocol": "The AR-BCL6 TCIPs synthesized in I above were tested for their ability to kill prostate cancer cell lines as an indication of their ability to treat human prostatic cancer. AR-TCIPs rapidly and robustly kill human prostatic cancer cell lines. Four different cell lines were used that are androgen-dependent. The drugs were added at the indicated concentrations and viable cell counts determined after 72 hours of exposure. […] The EC50 is shown in each case."}},
  "note": "Entries after “also recorded” stand apart in the source; their conditions may differ. Like-named read-outs stand apart in the source and are kept apart here.",
  "data": [
    {"smiles": "CNC(=O)COc1cc2cc(Nc3nc(N4CCC(C(=O)NCCCCCCC(=O)N5CCC(C(=O)Nc6ncc(SCc7ncc(C(C)(C)C)o7)s6)CC5)CC4)ncc3Cl)cc(OC)c2n(C)c1=O", "note": "[BAK04-21]", "values": [
      {"measurement": "Ternary complex in cells, competition with Bl3812", "setting": "CDK9 and BCL6", "result": "forms a ternary complex in cells that can be competed with the BCL6 inhibitor"}
    ]},
    {"smiles": "CNC(=O)COc1cc2cc(Nc3nc(N4CCC(C(=O)NCCCCCCC(=O)N5CCC(C(=O)Nc6ncc(SCc7ncc(C(C)(C)C)o7)s6)CC5)CC4)ncc3Cl)cc(OC)c2n(C)c1=O", "note": "[BAK_04_21]", "values": [
      {"measurement": "Killing of lymphoma cells relative to component and competitor molecules", "setting": "SUDHL5", "result": "more effective at killing lymphoma cells than component molecules and competitor molecules"}
    ]},
    {"smiles": "Cc1sc2c(c1C)C(c1ccc(Cl)cc1)=N[C@@H](CC(=O)OC(C)(C)C)c1nnc(C)n1-2", "note": "[JQ1]", "values": [
      {"measurement": "Drug level that reduces expression of MYC", "setting": "[1]", "result": 500, "unit": "nM"},
      {"measurement": "Rescue of TCIP-induced cell death", "setting": "DLBCL cell lines", "result": "rescue cell death; also recorded: prevented death by TCIP1"},
      {"measurement": "IC50", "setting": "NCI-H1105", "result": "Unstable"},
      {"measurement": "IC50", "setting": "DMS-79", "result": 10.1, "unit": "µM"},
      {"measurement": "IC50", "setting": "NCI-H2196", "result": 14.4, "unit": "µM"}
    ]},
    {"smiles": "CNC(=O)COc1cc2cc(Nc3nc(N4CCC(C(=O)NCCCNC(=O)CO/N=C5\\CC[C@H]6[C@@H]7CC[C@H]8CC(=O)CC[C@]8(C)[C@H]7CC[C@]56C)CC4)ncc3Cl)cc(OC)c2n(C)c1=O", "note": "[RCS-02-063]", "values": [
      {"measurement": "BRET signal (target engagement)", "setting": "AR and BCL6", "result": "robust BRET signal"},
      {"measurement": "IC50", "setting": "[2]", "result": "~1", "unit": "µM"},
      {"measurement": "IC50", "setting": "[2]; Homo sapiens, 72 h", "result": "~1.5", "unit": "µM"}
    ]}
  ]
}
